Test results taken from patent US20080004253A1, “Thiazolopyrimidine modulators of TRPV1” (priority 2006, published 2008).

Experiments:
[1] = target: T1, rat TRPV1 (Rattus norvegicus, UniProt O35433); assay: Functional assay: block of capsaicin-induced Ca2+ influx, rat assay (rTRPV1/HEK293, FLIPR); assay type: cell-based; conditions: rTRPV1/HEK293 cells, capsaicin challenge, Fluo-3 fluorescence; mean; > value = solubility limit in assay medium
T1 construct: expressed in transfected cells; host or cells: HEK293 (rTRPV1/HEK293), geneticin selection
Outline: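 Compounds, as free base or TFA salt, tested from 10 μM in three-fold steps on rTRPV1-transfected HEK293 cells, with 30 min preincubation in low-calcium (20 μM) buffer. Capsaicin-evoked Ca2+ influx measured by FLIPR fluo3 signal before and 100 s after addition. Averaged IC50 from non-linear fits.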

[2] = target: T2, human TRPV1 (Homo sapiens, UniProt Q8NER1); assay: Functional assay: block of capsaicin-induced Ca2+ influx, human assay (hTRPV1/HEK293, FLIPR); assay type: cell-based; conditions: hTRPV1/HEK293 cells, 150 nM capsaicin challenge, Fluo-3 fluorescence; mean; > value = solubility limit in assay medium
T2 construct: expressed in transfected cells; host or cells: HEK293 (hTRPV1/HEK293), zeocin selection
Outline: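 HEK293 cells stably expressing human TRPV1, fluo3-loaded, preincubated 30 min with compound (serial 3-fold dilutions from 10 μM, duplicate) in 20 μM Ca2+ buffer. Capsaicin response taken as fluo3 fluorescence change before vs 100 s after agonist; IC50 by non-linear regression, mean values; free base or TFA salt.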

T2 sequence (Q8NER1 whole entry): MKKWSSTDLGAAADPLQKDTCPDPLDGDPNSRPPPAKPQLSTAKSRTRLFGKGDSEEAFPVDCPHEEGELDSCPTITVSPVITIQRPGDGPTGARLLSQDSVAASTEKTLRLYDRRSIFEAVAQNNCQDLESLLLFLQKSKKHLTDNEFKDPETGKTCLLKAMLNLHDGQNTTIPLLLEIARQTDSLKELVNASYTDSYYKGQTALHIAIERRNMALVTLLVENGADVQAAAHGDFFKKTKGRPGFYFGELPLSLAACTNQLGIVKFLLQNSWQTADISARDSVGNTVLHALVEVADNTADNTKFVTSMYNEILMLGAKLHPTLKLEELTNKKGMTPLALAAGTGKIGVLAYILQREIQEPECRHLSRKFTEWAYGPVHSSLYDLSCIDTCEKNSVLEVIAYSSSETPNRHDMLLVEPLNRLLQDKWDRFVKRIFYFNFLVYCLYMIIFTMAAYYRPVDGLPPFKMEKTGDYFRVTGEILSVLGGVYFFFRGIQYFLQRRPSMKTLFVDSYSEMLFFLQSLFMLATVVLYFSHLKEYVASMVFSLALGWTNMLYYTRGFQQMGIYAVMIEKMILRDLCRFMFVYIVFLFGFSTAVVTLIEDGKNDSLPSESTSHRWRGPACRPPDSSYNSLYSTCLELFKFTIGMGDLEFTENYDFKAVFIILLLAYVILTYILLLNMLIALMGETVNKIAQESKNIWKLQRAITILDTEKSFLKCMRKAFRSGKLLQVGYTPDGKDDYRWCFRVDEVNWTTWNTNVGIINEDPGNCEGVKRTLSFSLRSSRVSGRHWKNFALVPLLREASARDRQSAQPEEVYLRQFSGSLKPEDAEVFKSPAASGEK
T1 sequence (O35433 whole entry): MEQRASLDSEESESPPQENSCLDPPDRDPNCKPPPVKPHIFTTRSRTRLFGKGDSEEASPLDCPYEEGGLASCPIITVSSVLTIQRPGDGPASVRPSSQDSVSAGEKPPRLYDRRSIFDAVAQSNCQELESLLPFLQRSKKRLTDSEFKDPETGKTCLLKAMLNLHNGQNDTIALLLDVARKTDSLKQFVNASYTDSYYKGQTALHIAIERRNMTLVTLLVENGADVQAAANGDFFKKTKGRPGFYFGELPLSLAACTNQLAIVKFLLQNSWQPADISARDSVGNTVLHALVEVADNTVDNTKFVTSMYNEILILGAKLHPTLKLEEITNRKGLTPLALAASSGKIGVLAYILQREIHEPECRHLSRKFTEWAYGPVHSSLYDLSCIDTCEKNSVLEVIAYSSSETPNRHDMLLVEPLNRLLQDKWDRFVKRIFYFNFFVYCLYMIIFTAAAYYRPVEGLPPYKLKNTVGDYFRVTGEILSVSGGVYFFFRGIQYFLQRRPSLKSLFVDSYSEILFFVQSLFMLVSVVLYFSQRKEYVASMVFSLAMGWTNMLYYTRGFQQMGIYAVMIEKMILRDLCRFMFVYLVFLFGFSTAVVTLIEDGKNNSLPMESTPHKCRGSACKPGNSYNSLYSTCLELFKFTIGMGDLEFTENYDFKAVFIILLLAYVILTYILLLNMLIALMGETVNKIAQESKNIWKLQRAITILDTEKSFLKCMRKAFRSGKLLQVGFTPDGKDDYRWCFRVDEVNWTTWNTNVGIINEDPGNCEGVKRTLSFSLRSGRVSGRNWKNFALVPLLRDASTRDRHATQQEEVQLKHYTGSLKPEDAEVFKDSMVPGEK

| IC50 [1] | IC50 [2] | SMILES |
| --- | --- | --- |
| 1.21 µM | 1.92 µM | Cc1nc(Nc2ccc(C(=O)N(C)C)cc2)c2nc(Nc3c(Cl)cccc3Cl)sc2n1 [Example 157, 4-[2-(2,6-Dichloro-phenylamino)-5-methyl-thiazolo[5,4-d]pyrimidin-7-ylamino]-N,N-dimethyl-benzamide] |
| 0.398 µM | 0.401 µM | Cc1nc(Nc2ccc(C(F)(F)F)cc2)c2nc(Nc3c(C)noc3C)sc2n1 [Example 208, N^2-(3,5-Dimethyl-isoxazol-4-yl)-5-methyl-N^7-(4-trifluoromethyl-phenyl)thiazolo[5,4-d]pyrimidine-2,7-diamine] |
| 17.3 µM | > 20 µM | Cc1cccc(C)c1Nc1nc2c(Nc3ccc(C(N)=O)cc3)ncnc2s1 [Example 169, 4-[2-(2,6-Dimethyl-phenylamino)-thiazolo[5,4-d]pyrimidin-7-ylamino]-benzamide] |
| 0.125 µM | 0.133 µM | COC[C@H]1CCCN1c1nc(Nc2ccc(C(F)(F)F)cc2)c2nc(Nc3c(Cl)cccc3Cl)sc2n1 [Example 194, (2R)-N^2-(2,6-Dichloro-phenyl)-5-(2-methoxymethyl-pyrrolidin-1-yl)-N^7-(4-trifluoromethyl-phenyl)-thiazolo[5,4-d]pyrimidine-2,7-diamine] |
| > 6.67 µM | > 6.67 µM | Cc1nc(Nc2ccc(N(S(C)(=O)=O)S(C)(=O)=O)cc2)c2nc(Nc3c(Cl)cccc3Cl)sc2n1 [Example 173, N-{4-[2-(2,6-Dichloro-phenylamino)-5-methyl-thiazolo[5,4-d]pyrimidin-7-ylamino]-phenyl}-dimethanesulfonamide] |
| 0.068 µM | 0.14 µM | N#Cc1cc(Cl)c(Nc2nc3c(Nc4ccc(C(F)(F)F)cc4)ncnc3s2)c(Cl)c1 [Example 234, 3,5-Dichloro-4-[7-(4-trifluoromethyl-phenylamino)-thiazolo[5,4-d]pyrimidin-2-ylamino]-benzonitrile] |
| 0.059 µM | 0.097 µM | Cc1cccc(C)c1Nc1nc2c(Nc3ccc(Br)cc3)ncnc2s1 [Example 123, N^7-(4-Bromo-phenyl)-N^2-(2,6-dimethyl-phenyl)-thiazolo[5,4-d]pyrimidine-2,7-diamine] |
| 12.5 µM | 16.6 µM | Cc1nc(Nc2ccc(C(F)(F)F)cc2)c2nc(Nc3cccc4nsnc34)sc2n1 [Example 205, N^2-Benzo[1,2,5]thiadiazol-4-yl-5-methyl-N^7-(4-trifluoromethyl-phenyl)-thiazolo[5,4-d]pyrimidine-2,7-diamine] |
| ≥ 6.67 µM | ≥ 6.67 µM | Cc1nc(Nc2ccc(C(F)(F)F)cc2)c2nc(Nc3ncccc3C)sc2n1 [Example 211, 5-Methyl-N^2-(3-methyl-pyridin-2-yl)-N^7-(4-trifluoromethyl-phenyl)-thiazolo[5,4-d]pyrimidine-2,7-diamine] |
| 0.135 µM | 0.567 µM | CS(=O)(=O)c1ccc(Nc2ncnc3sc(Nc4ccccc4C(F)(F)F)nc23)cc1 [Example 226, N^7-[4-(Methylsulfonyl)phenyl]-N^2-[2-(trifluoromethyl)phenyl][1,3]thiazolo[5,4-d]pyrimidine-2,7-diamine] |
| 3.2 µM | 0.82 µM | COC(=O)c1cc(Cl)c(Nc2nc3c(Nc4ccc(C(F)(F)F)cc4)ncnc3s2)c(Cl)c1 [Example 241, 3,5-Dichloro-4-[7-(4-trifluoromethyl-phenylamino)-thiazolo[5,4-d]pyrimidin-2-ylamino]-benzoic acid methyl ester] |
| 0.442 µM | 0.452 µM | Cc1cccc(C)c1Nc1nc2c(Nc3ccc(C(=O)N(C)C)cc3)ncnc2s1 [Example 145, 4-[2-(2,6-Dimethyl-phenylamino)-thiazolo[5,4-d]pyrimidin-7-ylamino]-N,N-dimethyl-benzamide] |
| 0.014 µM | 0.026 µM | Cc1cccc(C)c1Nc1nc2c(Nc3ccc(C(F)(F)F)c(F)c3)ncnc2s1 [Example 108, N^2-(2,6-Dimethyl-phenyl)-N^7-(3-fluoro-4-trifluoromethyl-phenyl)-thiazolo[5,4-d]pyrimidine-2,7-diamine] |
| 7.38 µM | > 20 µM | Cc1nc(Nc2ccc(NS(C)(=O)=O)cc2)c2nc(Nc3c(C)cccc3C)sc2n1 [Example 174, N-{4-[2-(2,6-Dimethyl-phenylamino)-5-methyl-thiazolo[5,4-d]pyrimidin-7-ylamino]-phenyl}-methanesulfonamide] |
| 0.061 µM | 0.09 µM | NC(=O)c1cc(Cl)c(Nc2nc3c(Nc4ccc(C(F)(F)F)cc4)ncnc3s2)c(Cl)c1 [Example 235, 3,5-Dichloro-4-[7-(4-trifluoromethyl-phenylamino)-thiazolo[5,4-d]pyrimidin-2-ylamino]-benzamide] |
| 1.01 µM | 4.37 µM | Cc1nc(NC2CCC(C(C)(C)C)CC2)c2nc(Nc3c(C)cccc3C)sc2n1 (mixture of isomers) [Example 249, N^7-(4-tert-Butyl-cyclohexyl)-N^2-(2,6-dimethyl-phenyl)-5-methyl-thiazolo[5,4-d]pyrimidine-2,7-diamine] |

Second part, the compound before the results:

| SMILES | IC50 [1] | IC50 [2] |
| --- | --- | --- |
| Cc1cccc(C)c1Nc1nc2c(Nc3ccc(C#N)nc3)ncnc2s1 [Example 29, 5-[2-(2,6-Dimethyl-phenylamino)-thiazolo[5,4-d]pyrimidin-7-ylamino]-pyridine-2-carbonitrile] | 0.178 µM | 0.207 µM |
| Cc1nc(NC2CCC(C(C)(C)C)CC2)c2nc(Nc3c(Cl)cccc3Cl)sc2n1 (mixture of isomers) [Example 8, N^7-(4-tert-Butyl-cyclohexyl)-N^2-(2,6-dichloro-phenyl)-5-methyl-thiazolo[5,4-d]pyrimidine-2,7-diamine] | 0.07 µM | 1.09 µM |
| Cc1nc(Nc2ccc(C(F)(F)F)cc2)c2nc(Nc3c(Cl)cccc3Cl)sc2n1 [Example 5, N^2-(2,6-Dichloro-phenyl)-5-methyl-N^7-(4-trifluoromethyl-phenyl)-thiazolo[5,4-d]pyrimidine-2,7-diamine] | 0.002 µM | 0.003 µM |
| Cc1cccc(C)c1Nc1nc2c(Nc3ccc(C(F)(F)F)nc3)ncnc2s1 [Example 11, N^2-(2,6-Dimethyl-phenyl)-N^7-(6-trifluoromethyl-pyridin-3-yl)-thiazolo[5,4-d]pyrimidine-2,7-diamine] | 0.007 µM | 0.023 µM |
| CN1CCN(S(=O)(=O)c2ccc(Nc3ncnc4sc(Nc5c(Cl)cccc5Cl)nc34)cc2)CC1 [Example 88, N^2-(2,6-Dichloro-phenyl)-N^7-[4-(4-methyl-piperazine-1-sulfonyl)-phenyl]-thiazolo[5,4-d]pyrimidine-2,7-diamine] | 0.004 µM | 0.007 µM |
| Cc1nc(Nc2ccc(S(=O)(=O)N(C)C)cc2)c2nc(Nc3c(C)cccc3C)sc2n1 [Example 85, 4-[2-(2,6-Dimethyl-phenylamino)-5-methyl-thiazolo[5,4-d]pyrimidin-7-ylamino]-N,N-dimethyl-benzenesulfonamide] | 0.003 µM | 0.004 µM |
| Cc1noc(C)c1Nc1nc2c(Nc3ccc(C(C)(C)C)cc3)ncnc2s1 [Example 51, N^7-(4-tert-Butyl-phenyl)-N^2-(3,5-dimethyl-isoxazol-4-yl)-thiazolo[5,4-d]pyrimidine-2,7-diamine] | 0.034 µM | 0.223 µM |
| Cc1cccc(C)c1Nc1nc2c(Nc3ccc(C(C)(C)C)cc3)ncnc2s1 [Example 12, N^7-(4-tert-Butyl-phenyl)-N^2-(2,6-dimethyl-phenyl)-thiazolo[5,4-d]pyrimidine-2,7-diamine] | 0.004 µM | 0.03 µM |
| CC(C)(C)c1ccc(Nc2ncnc3sc(Nc4c(Cl)cccc4Cl)nc23)cc1 [Example 3, N^7-(4-tert-Butyl-phenyl)-N^2-(2,6-dichloro-phenyl)-thiazolo[5,4-d]pyrimidine-2,7-diamine] | 0.001 µM | 0.014 µM |
| COc1ccc(Nc2ncnc3sc(Nc4c(C)cccc4C)nc23)cc1 [Example 33, N^2-(2,6-Dimethyl-phenyl)-N^7-(4-methoxy-phenyl)-thiazolo[5,4-d]pyrimidine-2,7-diamine] | 0.07 µM | 0.205 µM |
| FC(F)(F)c1ccc(Nc2nc(N3CCCCC3)nc3sc(Nc4c(Cl)cccc4Cl)nc23)cc1 [Example 54, N^2-(2,6-Dichloro-phenyl)-5-piperidin-1-yl-N^7-(4-trifluoromethyl-phenyl)-thiazolo[5,4-d]pyrimidine-2,7-diamine] | 0.033 µM | 0.063 µM |
| Cc1nc(Nc2ccc(S(=O)(=O)C(C)C)cc2)c2nc(Nc3c(C)cccc3C)sc2n1 [Example 102, N^2-(2,6-Dimethyl-phenyl)-5-methyl-N^7-[4-(Propane-2-sulfonyl)-phenyl]-thiazolo[5,4-d]pyrimidine-2,7-diamine] | 0.019 µM | 0.018 µM |
| Cc1noc(C)c1Nc1nc2c(Nc3ccc(C(F)(F)F)cc3)ncnc2s1 [Example 25, N^2-(3,5-Dimethyl-isoxazol-4-yl)-N^7-(4-trifluoromethyl-phenyl)-thiazolo[5,4-d]pyrimidine-2,7-diamine] | 0.068 µM | 0.421 µM |
| FC(F)(F)c1ccc(Nc2nc(N3CCOCC3)nc3sc(Nc4c(Cl)cccc4Cl)nc23)cc1 [Example 64, N^2-(2,6-Dichloro-phenyl)-5-morpholin-4-yl-N^7-(4-trifluoromethyl-phenyl)-thiazolo[5,4-d]pyrimidine-2,7-diamine] | 0.017 µM | 0.041 µM |
